Test results as given in patent US11485728B2, “Small molecules for the treatment of autoimmune diseases and cancer” (Athos Therapeutics, Inc., priority 2020, dated 2022).

Key:
[1] = tested on: HT-29 colorectal cancer cells; assay: HT-29 cell viability (Real-Time-Glo); assay type: cell-based; settings: luminescence at 72 h
Procedure: Equal volume of 2× RealTime-Glo™ reagent (2 μl of MT Cell Viability Substrate 1,000×, and 2 μl of NanoLuc® Enzyme 1,000×, per 1 ml of media, Promega) was added to each well and cells were incubated at 37° C. Luminescence was evaluated at 72 h.
To determine the plating density for cell viability assays, for each cell line, cells were counted and diluted to final densities of 2.5, 5, 10 and 20 thousand per 100 μl of their respective growth media per well in 96 well plates. A Promega Real-Time-Glo cell viability kit was used to determine the optimal concentration for cell plating so that each cell line would be within the linear part of its growth curve after 72 hrs in culture. […] Test compounds were then added at different concentrations for the creation of six-point curve and cell density was determined using the Promega Real-Time-Glo cell viability kit after 24, 48, and 72 hrs in culture.
Specifically, the Promega Real-Time-Glo cell viability kit was used to determine the optimal concentration for cell plating so that each cell line would be within the linear part of its growth curve after 72 hrs in culture. […] Test compounds are then added at different concentrations for the creation of six-point curve and cell density is determined using the Promega Real-Time-Glo cell viability kit after 24, 48, and 72 hrs in culture. […]

CYP1A2 = target: T1, CYP1A2 (Homo sapiens, UniProt P05177); assay: CYP-direct inhibition, CYP1A2; assay type: in vitro ADME; settings: human liver microsome; substrate ethoxy-resorufin; read-out: IC50 CYP-1A2
T1 construct: from tissue; host or cells: pooled human liver microsomes
T1 sequence (P05177 1-516): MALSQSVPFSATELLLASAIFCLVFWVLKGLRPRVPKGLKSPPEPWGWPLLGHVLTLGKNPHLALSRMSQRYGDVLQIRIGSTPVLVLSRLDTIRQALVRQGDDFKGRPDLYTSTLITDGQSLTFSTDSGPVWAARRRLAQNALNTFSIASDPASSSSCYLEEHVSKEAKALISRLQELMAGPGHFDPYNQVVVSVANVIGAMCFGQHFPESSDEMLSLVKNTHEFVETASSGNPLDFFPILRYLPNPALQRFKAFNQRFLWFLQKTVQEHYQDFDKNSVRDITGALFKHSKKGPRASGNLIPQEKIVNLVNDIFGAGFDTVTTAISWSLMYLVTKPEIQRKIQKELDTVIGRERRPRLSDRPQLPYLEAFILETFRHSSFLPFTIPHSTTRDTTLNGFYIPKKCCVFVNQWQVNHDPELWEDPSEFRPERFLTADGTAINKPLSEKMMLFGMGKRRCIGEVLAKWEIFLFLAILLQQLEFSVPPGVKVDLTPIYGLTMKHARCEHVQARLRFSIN
Procedure: Many drugs inhibit cytochrome P450 enzymes to cause clinically significant changes in the pharmacokinetics of other drugs. In vitro cytochrome P450 inhibition, can provide crucial information in evaluating potential clinical drug-drug interactions and is useful for focusing in vivo tests to areas of concern. The cytochrome P450 inhibition assay was developed by preparing a working cocktail solution consisting of six probe substrates 10 μM ethoxy-resorufin (CYP1A2), 100 μM rosiglitazone (CYP2C8), 50 μM diclofenac (CYP2C9), 300 μM S-mephenytoin (CYP2C19), 50 μM dextromethorphan (CYP2D6), and 20 μM midazolam (CYP3A4). A mixture solution consists of 140 uL of 0.286 mg/mL of pooled human liver microsome working solution and 20 uL working solutions of test articles, standard control inhibitors, or positive control placebo and 20 uL of substrate cocktail mixture working solution was prepared. The mixture solution was pre-warm in a gentle shaking bath at 37±2° C. for 5 minutes. The enzymatic reaction started by adding 20 uL of NRS working solution to the mixture solution and incubated for 10 minutes at 37±2° C. To stop the reaction, an addition of 400 μL cold stop solution (acetonitrile containing 50 ng/mL Tolbutamide as an internal standard (I.Std.) was added to the mixture solution. The final concentration of test article, inhibitors, substrates, and cofactors are noted in Table 0.1 below. Two individual samples were prepared for each test compound. The extracted samples were vortexed and then centrifuged at 4500 rpm for 7 minutes using Eppendorf Centrifuge 5910R. 200 uL of supernatant was diluting with 200 uL of 50% Methanol into 96-DW plate for LC/MS/MS analysis
Concentration-response plots are used to determine the effects of an inhibitor on an enzymatic reaction. A typical concentration-response plot provides fractional activity (Y axis) is plotted as a function of log inhibitor concentration (X axis). The data are fitted using a standard Sigmoidal dose-response equation which is also called a […] logistic equation. The concentration of compound that results in 50% inhibition of maximal activity is termed as the IC50 (inhibitor concentration yielding 50% inhibition). IC50 value is calculated using Prism GraphPad software, version 9. […].
Cytochrome P450 inhibition of a drug is a key factor in determining pharmacokinetic drug-drug interactions. The objective of this study was to evaluate the inhibition potential of G9a inhibitors on six (6) major human cytochrome P450 enzymes, including CYP1A2, CYP2C8, CYP2C9, CYP2C19, CYP2D6, and CYP3A4. Inhibition was determined by using a substrate cocktail and analyzing the rate of specific metabolites formation. The cytochrome P450 inhibition assay was developed using a cocktail consisting of six (6) probe substrates ethoxy-resorufin (CYP1A2), rosiglitazone (CYP2C8), diclofenac (CYP2C9), S-mephenytoin (CYP2C19), dextromethorphan (CYP2D6), and midazolam (CYP3A4). The cocktail was incubated in human liver microsome with NADPH regenerating system (NRS) in a shaking bath at 37±2° C. The formation of specific metabolites was monitored by LC/MS/MS. Test compound was added to the cocktail-liver microsome mixture at varying concentrations and its effect on cytochrome P450 activity was determined by analyzing the rate of specific metabolite formation. The percent inhibition was calculated and plotted with reference to the concentration, and the IC50 value for inhibition was derived by fitting the data with a using log(inhibitor) vs. normalized response with variable slope least squares fit by Graphpad Prism® software. […].

Row | SMILES | IC50 (CYP1A2) [µM] | growth of HT-29 colorectal cancer cells [1]
1 | COc1cc2c(NC3CCS(=O)(=O)CC3)nc(N3CCC(F)(F)CC3)nc2cc1OCCCN1CCCC1 [Compound 1, 4-((2-(4,4-difluoropiperidin-1-yl)-6-methoxy-7-(3-(pyrrolidin-1-yl)propoxy)quinazolin-4-yl)amino)tetrahydro-2H-thiopyran 1,1-dioxide] | > 100 | potent anti-cancer activity
2 | COc1cc2c(NCC3CCN(C)CC3)nc(N3CCC(F)(F)CC3)nc2cc1OCCCN1CCCC1 [Compound 5, 2-(4,4-difluoropiperidin-1-yl)-6-methoxy-N-((1-methylpiperidin-4-yl)methyl)-7-(3-(pyrrolidin-1-yl)propoxy)quinazolin-4-amine] | > 100 | –
3 | COc1cc2c(NC3CCNCC3)nc(N3CCC(F)(F)CC3)nc2cc1OCCCN1CCCC1 [Compound 8, 2-(4,4-difluoropiperidin-1-yl)-6-methoxy-N-(piperidin-4-yl)-7-(3-(pyrrolidin-1-yl)propoxy)quinazolin-4-amine] | > 100 | –
4 | COc1cc2c(NCC(N)=O)nc(N3CCC(F)(F)CC3)nc2cc1OCCCN1CCCC1 [Compound 9, 2-((2-(4,4-difluoropiperidin-1-yl)-6-methoxy-7-(3-(pyrrolidin-1-yl)propoxy)quinazolin-4-yl)amino)acetamide] | > 100 | –
5 | COc1cc2c(NC3COC3)nc(N3CCC(F)(F)CC3)nc2cc1OCCCN1CCCC1 [Compound 11, 2-(4,4-difluoropiperidin-1-yl)-6-methoxy-N-(oxetan-3-yl)-7-(3-(pyrrolidin-1-yl)propoxy)quinazolin-4-amine] | > 100 | –
6 | COc1cc2c(Nc3ccncc3)nc(-n3ccnc3)nc2cc1OCCCN1CCCC1 [Compound 130, 2-(1H-imidazol-1-yl)-6-methoxy-N-(pyridin-4-yl)-7-(3-(pyrrolidin-1-yl)propoxy)quinazolin-4-amine] | 10.4 | –
7 | COc1cc2c(NC3CCN(C(C)C)CC3)nc(-n3cccn3)nc2cc1OCCCN1CCCC1 [Compound 157, N-(1-isopropylpiperidin-4-yl)-6-methoxy-2-(1H-pyrazol-1-yl)-7-(3-(pyrrolidin-1-yl)propoxy)quinazolin-4-amine] | > 100 | –
8 | COc1cc2c(N[C@H]3CCCNC3)nc(N3CCCC3)nc2cc1OCCCN1CCCC1 [Compound 158, (S)-6-methoxy-N-(piperidin-3-yl)-2-(pyrrolidin-1-yl)-7-(3-(pyrrolidin-1-yl)propoxy)quinazolin-4-amine] | > 100 | –
9 | COc1cc2c(N[C@@H]3CCCNC3)nc(N3CCCC3)nc2cc1OCCCN1CCCC1 [Compound 159, (R)-6-methoxy-N-(piperidin-3-yl)-2-(pyrrolidin-1-yl)-7-(3-(pyrrolidin-1-yl)propoxy)quinazolin-4-amine] | > 100 | –
10 | COc1cc2c(NC3CCOCC3)nc(N3CCOCC3)nc2cc1OCCCN1CCCC1 [Compound 195, 6-methoxy-2-morpholino-7-(3-(pyrrolidin-1-yl)propoxy)-N-(tetrahydro-2H-pyran-4-yl)quinazolin-4-amine] | > 100 | –
11 | COc1cc2c(NC3CCOCC3)nc(N3CCS(=O)(=O)CC3)nc2cc1OCCCN1CCCC1 [Compound 196, 4-(6-methoxy-7-(3-(pyrrolidin-1-yl)propoxy)-4-((tetrahydro-2H-pyran-4-yl)amino)quinazolin-2-yl)thiomorpholine 1,1-dioxide] | > 100 | –
12 | COc1cc2c(NC3CCOCC3)nc(N3CCCN(C)CC3)nc2cc1OCCCN1CCCC1 [Compound 237, 6-methoxy-2-(4-methyl-1,4-diazepan-1-yl)-7-(3-(pyrrolidin-1-yl)propoxy)-N-(tetrahydro-2H-pyran-4-yl)quinazolin-4-amine] | > 100 | –
13 | COc1cc2c(NC3CCS(=O)(=O)CC3)nc(N3CCC(F)(F)CC3)nc2cc1C#CCN1CCCC1 [Compound 248, 4-((2-(4,4-difluoropiperidin-1-yl)-6-methoxy-7-(3-(pyrrolidin-1-yl)prop-1-yn-1-yl)quinazolin-4-yl)amino)tetrahydro-2H-thiopyran 1,1-dioxide] | > 100 | –

Now from value to compound, other results behind:

Row | IC50 (CYP1A2) [µM] | SMILES | growth of HT-29 colorectal cancer cells [1]
14 | > 100 | COc1cc2c(NC3CCS(=O)(=O)CC3)nc(N3CCCC3)nc2cc1OCCCN1CCCC1 [Compound 80, 4-((6-methoxy-2-(pyrrolidin-1-yl)-7-(3-(pyrrolidin-1-yl)propoxy)quinazolin-4-yl)amino)tetrahydro-2H-thiopyran 1,1-dioxide] | –
15 | > 100 | COc1cc2c(NC3CCS(=O)(=O)CC3)nc(N3CCOCC3)nc2cc1OCCCN1CCCC1 [Compound 102, 4-((6-methoxy-2-morpholino-7-(3-(pyrrolidin-1-yl)propoxy)quinazolin-4-yl)amino)tetrahydro-2H-thiopyran 1,1-dioxide] | –
16 | > 100 | COc1cc2c(NC3CCS(=O)(=O)CC3)nc(N3CCS(=O)(=O)CC3)nc2cc1OCCCN1CCCC1 [Compound 103, 4-(4-((1,1-dioxidotetrahydro-2H-thiopyran-4-yl)amino)-6-methoxy-7-(3-(pyrrolidin-1-yl)propoxy)quinazolin-2-yl)thiomorpholine 1,1-dioxide] | –
17 | > 100 | COc1cc2c(NC3CCS(=O)(=O)CC3)nc(N3CCN(C)CC3)nc2cc1OCCCN1CCCC1 [Compound 109, 4-((6-methoxy-2-(4-methylpiperazin-1-yl)-7-(3-(pyrrolidin-1-yl)propoxy)quinazolin-4-yl)amino)tetrahydro-2H-thiopyran 1,1-dioxide] | –
18 | > 100 | COc1cc2c(NC3CCS(=O)(=O)CC3)nc(N3CCCN(C)CC3)nc2cc1OCCCN1CCCC1 [Compound 110, 4-((6-methoxy-2-(4-methyl-1,4-diazepan-1-yl)-7-(3-(pyrrolidin-1-yl)propoxy)quinazolin-4-yl)amino)tetrahydro-2H-thiopyran 1,1-dioxide] | –
19 | > 100 | COc1cc2c(NC3CCOCC3)nc(N3CCN(C)CC3)nc2cc1OCCCN1CCCC1 [Compound 236, 6-methoxy-2-(4-methylpiperazin-1-yl)-7-(3-(pyrrolidin-1-yl)propoxy)-N-(tetrahydro-2H-pyran-4-yl)quinazolin-4-amine] | –
